Tests used:
[1] = tested on: Cables mRNA levels in HES cells; experiment: Northern analysis of Cables mRNA after hormone treatment, HES cells; assay type: cell-based, human; conditions: vs untreated controls
Text: FIGS. 15A and 15B are images showing northern analysis of Cables mRNA levels in HES cells (FIG. 15A) and SK-UT2 cells (FIG. 15B) following progesterone treatment.
FIGS. 16A and 16B are images showing northern analysis of Cables mRNA levels in HES cells (FIG. 16A) and SK-UT2 cells (FIG. 16B) following progesterone or estrogen treatment.
(§1) Cell lines have been used to investigate the effect of hormonal regulation on Cables expression, as well as the effect of Cables overexpression on these cells. We have isolated RNA and protein from HES, Ishikawa, and SK-UT2 endometrial cells lines for analysis. The influence of progesterone and estrogen on Cables expression was evaluated in these cells. […] Western analysis confirmed that a protein product was present. Conversely, estrogen reduced the levels of Cables mRNA expression in these cell lines (FIG. 16A). There is was no hormonal effect on Cables mRNA expression in SK-UT2 cells, which are derived from a G3 human uterine cancer (FIGS. 15B and 16B).

[2] = tested on: Cables mRNA levels in Ishikawa cells; experiment: Cables mRNA after hormone treatment, Ishikawa cells; assay type: cell-based; conditions: vs untreated controls
Method: as §1

[3] = target: cdk2 (UniProt P24941); experiment: cell-based or functional assay

Chain of Wee1 (P30291 whole entry): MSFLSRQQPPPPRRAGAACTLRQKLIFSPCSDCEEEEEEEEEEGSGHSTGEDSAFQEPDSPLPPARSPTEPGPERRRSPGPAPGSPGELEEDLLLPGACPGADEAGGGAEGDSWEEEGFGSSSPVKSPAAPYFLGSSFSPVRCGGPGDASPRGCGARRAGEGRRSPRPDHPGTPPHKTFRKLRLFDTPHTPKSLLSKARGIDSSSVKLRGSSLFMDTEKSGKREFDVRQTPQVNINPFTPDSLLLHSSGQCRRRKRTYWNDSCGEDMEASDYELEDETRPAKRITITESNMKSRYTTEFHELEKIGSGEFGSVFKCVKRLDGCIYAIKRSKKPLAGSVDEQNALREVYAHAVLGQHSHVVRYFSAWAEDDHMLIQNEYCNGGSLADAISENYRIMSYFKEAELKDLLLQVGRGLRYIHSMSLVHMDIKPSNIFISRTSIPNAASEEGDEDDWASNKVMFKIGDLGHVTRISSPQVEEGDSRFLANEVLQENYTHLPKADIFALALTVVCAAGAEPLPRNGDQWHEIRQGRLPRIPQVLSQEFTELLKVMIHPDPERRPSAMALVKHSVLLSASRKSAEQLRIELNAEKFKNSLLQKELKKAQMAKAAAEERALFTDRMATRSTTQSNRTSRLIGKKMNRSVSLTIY
Chain of Cables (full length, expressed from a transfected construct) (Q9ESJ1 whole entry): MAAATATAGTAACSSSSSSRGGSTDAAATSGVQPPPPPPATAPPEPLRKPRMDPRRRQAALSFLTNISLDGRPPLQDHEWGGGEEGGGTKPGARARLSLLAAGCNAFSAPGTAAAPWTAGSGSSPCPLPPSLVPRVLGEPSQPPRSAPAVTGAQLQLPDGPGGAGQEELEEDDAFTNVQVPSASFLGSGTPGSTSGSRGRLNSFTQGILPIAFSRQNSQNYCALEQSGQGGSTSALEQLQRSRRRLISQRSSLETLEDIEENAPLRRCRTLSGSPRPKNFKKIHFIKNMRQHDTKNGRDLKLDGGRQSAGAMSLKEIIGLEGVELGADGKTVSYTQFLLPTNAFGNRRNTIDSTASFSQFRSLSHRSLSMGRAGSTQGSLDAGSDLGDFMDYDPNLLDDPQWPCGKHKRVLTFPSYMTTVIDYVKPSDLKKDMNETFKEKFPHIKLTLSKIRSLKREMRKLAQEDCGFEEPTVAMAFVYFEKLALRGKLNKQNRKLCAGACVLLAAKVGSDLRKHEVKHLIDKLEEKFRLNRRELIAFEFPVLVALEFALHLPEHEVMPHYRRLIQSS

Row | Y15-phosphorylated cdk2 in stable Cables cell lines against control cell lines (cdk2 immunoprecipitation, phospho-Tyr15 antibody) [3] [fold] | level of tyrosine phosphorylation of cdk2 (cdk2 immunoprecipitation, antiphosphotyrosine western blot, COS7 cells coexpressing Cables and Wee1) (times basal level) [3] | Compound | Cables mRNA levels [1] | Cables mRNA levels [2]
1 | – | – | CC(=O)[C@H]1CC[C@H]2[C@@H]3CCC4=CC(=O)CC[C@]4(C)[C@H]3CC[C@]12C [Progestin, progesterone] | dose dependent elevation | dose dependent elevation
2 | 5 | – | Cables (full length, expressed from a transfected construct) | – | –
3 | – | 30 | Wee1 (from UniProt P30291 1-646) (enzyme) | – | –
4 | – | – | estrogen | reduced | reduced
